# Source: publication PMC8066402 (The AAPS journal, 2020)
# Target: T1, Monocarboxylate transporter 1 (MCT1) (Mus musculus, UniProt P53986)
# T1 sequence (P53986 1-493): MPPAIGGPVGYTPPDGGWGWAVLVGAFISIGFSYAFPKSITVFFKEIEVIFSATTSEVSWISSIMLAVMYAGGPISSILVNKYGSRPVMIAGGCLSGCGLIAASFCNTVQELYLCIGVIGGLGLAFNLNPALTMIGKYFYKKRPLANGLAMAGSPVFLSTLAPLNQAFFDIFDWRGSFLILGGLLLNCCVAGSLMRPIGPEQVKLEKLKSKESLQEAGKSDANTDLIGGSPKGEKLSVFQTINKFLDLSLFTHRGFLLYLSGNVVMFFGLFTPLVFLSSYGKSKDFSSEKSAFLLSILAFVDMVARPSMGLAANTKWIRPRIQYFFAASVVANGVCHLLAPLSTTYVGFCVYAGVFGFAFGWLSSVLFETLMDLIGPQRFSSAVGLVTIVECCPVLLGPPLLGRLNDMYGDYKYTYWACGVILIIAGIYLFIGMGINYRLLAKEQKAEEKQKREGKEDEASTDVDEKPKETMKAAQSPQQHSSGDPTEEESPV
# T1 sequence (P18572 22-389 partner): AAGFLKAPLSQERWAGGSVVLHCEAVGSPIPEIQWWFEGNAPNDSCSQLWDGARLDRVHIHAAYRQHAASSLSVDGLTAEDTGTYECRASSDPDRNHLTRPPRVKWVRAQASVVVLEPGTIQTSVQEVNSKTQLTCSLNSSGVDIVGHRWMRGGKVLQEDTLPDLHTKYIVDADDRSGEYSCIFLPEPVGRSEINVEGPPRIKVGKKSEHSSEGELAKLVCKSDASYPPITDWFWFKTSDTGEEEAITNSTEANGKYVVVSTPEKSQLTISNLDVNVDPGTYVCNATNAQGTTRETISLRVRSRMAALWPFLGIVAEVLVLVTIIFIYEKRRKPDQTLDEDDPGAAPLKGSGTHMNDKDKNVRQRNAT
# Assay: inhibition of radiolabeled L-lactate uptake in 4T1 cells
# Format: cell-based
row,Structure (SMILES),IC50 [mM]
1,Cc1[nH]nc(C(F)(F)F)c1Cc1sc2c(c1C(=O)N1C[C@](C)(O)CO1)c(=O)n(C)c(=O)n2C(C)C [AZD3965],1.7e-05 ± 3.6e-06
2,"N#C/C(=C\c1ccc(O)cc1)C(=O)O [CHC, α-cyano-4-hydroxycinnamic acid]",7.57 ± 15.2
